From publication PMC5218480 (PLoS ONE, 2017)

System: MV-4-11 cells
Test: Gene expression microarray analysis (Affymetrix PrimeView) and GSEA
Format: cell-based, human
Parameters: RFU PODN (11730768_x_at) / Fold change /veh PODN (11730768_x_at) / RFU LINC00158 (11744669_a_at) / Fold change /veh LINC00158 (11744669_a_at) / RFU DUSP10 (11751237_a_at) / Fold change /veh DUSP10 (11751237_a_at) / RFU ID3 (11757404_x_at) / Fold change /veh ID3 (11757404_x_at) / RFU PLEKHG5 (11737974_s_at) / Fold change /veh PLEKHG5 (11737974_s_at) / RFU LRRC4B (11730491_at) / Fold change /veh LRRC4B (11730491_at) / RFU GIMAP4 (11747438_a_at) / Fold change /veh GIMAP4 (11747438_a_at) / RFU KRT8 (11758183_x_at) / Fold change /veh KRT8 (11758183_x_at) / RFU CNN1 (11734310_a_at) / Fold change /veh CNN1 (11734310_a_at) / RFU VPS37D (11726825_at) / Fold change /veh VPS37D (11726825_at) / RFU C10orf10 (11716522_x_at) / Fold change /veh C10orf10 (11716522_x_at) / RFU KIR2DL2 /// KIR2DL4 /// KIR2DL5A /// KIR2DL5B /// KIR2DS1 /// KIR2DS2 /// KIR2DS3 /// KIR2DS4 /// KIR3DL3 /// KIR3DL3 /// KIR3DS1 (11738374_at) / Fold change /veh KIR2DL2 /// KIR2DL4 /// KIR2DL5A /// KIR2DL5B /// KIR2DS1 /// KIR2DS2 /// KIR2DS3 /// KIR2DS4 /// KIR3DL3 /// KIR3DL3 /// KIR3DS1 (11738374_at) / RFU C1QL1 (11718748_at) / Fold change /veh C1QL1 (11718748_at) / RFU TMPRSS4 (11747572_a_at) / Fold change /veh TMPRSS4 (11747572_a_at) / RFU HAMP (11756126_x_at) / Fold change /veh HAMP (11756126_x_at) / RFU RNFT2 (11725882_a_at) / Fold change /veh RNFT2 (11725882_a_at) / RFU NR4A2 (11747474_a_at) / Fold change /veh NR4A2 (11747474_a_at) / RFU ABCC12 (11746883_a_at) / Fold change /veh ABCC12 (11746883_a_at) / RFU TMEM136 (11760407_x_at) / Fold change /veh TMEM136 (11760407_x_at) / RFU CLDN22 /// WWC2 (11732394_at) / Fold change /veh CLDN22 /// WWC2 (11732394_at) / RFU HLA-DPB1 (11760878_x_at) / Fold change /veh HLA-DPB1 (11760878_x_at) / RFU SPINT1 (11716480_a_at) / Fold change /veh SPINT1 (11716480_a_at) / RFU GAP43 (11754022_s_at) / Fold change /veh GAP43 (11754022_s_at) / RFU A4GNT (11735810_at) / Fold change /veh A4GNT (11735810_at) / RFU PRB3 (11715151_x_at) / Fold change /veh PRB3 (11715151_x_at) / RFU TUBB4B (11761932_at) / Fold change /veh TUBB4B (11761932_at) / RFU CAPN14 (11732068_a_at) / Fold change /veh CAPN14 (11732068_a_at) / RFU TMCC2 (11721928_a_at) / Fold change /veh TMCC2 (11721928_a_at) / RFU IRGQ (11745062_a_at) / Fold change /veh IRGQ (11745062_a_at) / RFU FAM174B (11720279_a_at) / Fold change /veh FAM174B (11720279_a_at) / RFU TMPRSS4 (11748680_a_at) / Fold change /veh TMPRSS4 (11748680_a_at) / RFU FAM212B (11763350_a_at) / Fold change /veh FAM212B (11763350_a_at) / RFU PLEKHG5 (11743358_a_at) / Fold change /veh PLEKHG5 (11743358_a_at) / RFU ZSCAN30 (11745921_a_at) / Fold change /veh ZSCAN30 (11745921_a_at) / RFU CMKLR1 (11741424_a_at) / Fold change /veh CMKLR1 (11741424_a_at) / RFU LOC101060620 /// MAPK8IP1 (11723275_at) / Fold change /veh LOC101060620 /// MAPK8IP1 (11723275_at) / RFU SPTSSB (11747773_x_at) / Fold change /veh SPTSSB (11747773_x_at) / RFU PRSS12 (11739890_at) / Fold change /veh PRSS12 (11739890_at) / RFU BIN1 (11741810_x_at) / Fold change /veh BIN1 (11741810_x_at) / RFU WNT11 (11732464_a_at) / Fold change /veh WNT11 (11732464_a_at) / RFU C10orf10 (11716521_a_at) / Fold change /veh C10orf10 (11716521_a_at) / RFU C5orf56 (11738089_at) / Fold change /veh C5orf56 (11738089_at) / RFU CYB561 (11721691_x_at) / Fold change /veh CYB561 (11721691_x_at) / RFU ANKRD19P (11752326_a_at) / Fold change /veh ANKRD19P (11752326_a_at) / RFU OR2T12 /// OR2T33 /// OR2T8 (11738714_s_at) / Fold change /veh OR2T12 /// OR2T33 /// OR2T8 (11738714_s_at) / RFU VCAN (11748164_a_at) / Fold change /veh VCAN (11748164_a_at) / RFU JSRP1 (11732532_at) / Fold change /veh JSRP1 (11732532_at) / RFU KRTAP10-11 (11738290_x_at) / Fold change /veh KRTAP10-11 (11738290_x_at) / RFU MYO3A (11730013_a_at) / Fold change /veh MYO3A (11730013_a_at) / RFU EBF3 (11725865_a_at) / Fold change /veh EBF3 (11725865_a_at) / RFU CAMK2N1 (11719241_x_at) / Fold change /veh CAMK2N1 (11719241_x_at) / RFU C5orf56 (11738088_a_at) / Fold change /veh C5orf56 (11738088_a_at) / RFU OLFML3 (11715873_a_at) / Fold change /veh OLFML3 (11715873_a_at) / RFU LOC100653217 /// NTM (11731650_a_at) / Fold change /veh LOC100653217 /// NTM (11731650_a_at) / RFU MAPK11 (11762145_a_at) / Fold change /veh MAPK11 (11762145_a_at) / RFU FIZ1 (11724087_x_at) / Fold change /veh FIZ1 (11724087_x_at) / RFU OASL (11726364_x_at) / Fold change /veh OASL (11726364_x_at) / RFU SOX15 (11748057_x_at) / Fold change /veh SOX15 (11748057_x_at) / RFU CD79A (11719716_a_at) / Fold change /veh CD79A (11719716_a_at) / RFU HIST1H1D (11736915_at) / Fold change /veh HIST1H1D (11736915_at) / RFU CASKIN2 (11723855_a_at) / Fold change /veh CASKIN2 (11723855_a_at) / RFU LOC730098 (11760151_x_at) / Fold change /veh LOC730098 (11760151_x_at) / RFU OR4N2 (11742367_at) / Fold change /veh OR4N2 (11742367_at) / RFU PRRT2 (11749266_a_at) / Fold change /veh PRRT2 (11749266_a_at) / RFU SNX32 (11753110_a_at) / Fold change /veh SNX32 (11753110_a_at) / RFU CDHR5 (11726645_a_at) / Fold change /veh CDHR5 (11726645_a_at) / RFU RCAN1 (11760418_a_at) / Fold change /veh RCAN1 (11760418_a_at) / RFU FAM167A (11723789_a_at) / Fold change /veh FAM167A (11723789_a_at) / RFU FAM26E (11764081_at) / Fold change /veh FAM26E (11764081_at) / RFU ISYNA1 (11749810_s_at) / Fold change /veh ISYNA1 (11749810_s_at) / RFU ACY1 (11761880_at) / Fold change /veh ACY1 (11761880_at) / RFU 11764098_at / Fold change /veh 11764098_at / RFU SAMD14 (11745864_x_at) / Fold change /veh SAMD14 (11745864_x_at) / RFU NPB (11741838_a_at) / Fold change /veh NPB (11741838_a_at) / RFU TMPRSS6 (11731388_a_at) / Fold change /veh TMPRSS6 (11731388_a_at) / RFU KRTAP10-2 (11738614_at) / Fold change /veh KRTAP10-2 (11738614_at) / RFU ARHGAP8 /// PRR5-ARHGAP8 (11727945_x_at) / Fold change /veh ARHGAP8 /// PRR5-ARHGAP8 (11727945_x_at) / RFU KRTAP5-7 /// NADSYN1 (11734609_at) / Fold change /veh KRTAP5-7 /// NADSYN1 (11734609_at) / RFU RASL12 (11751679_a_at) / Fold change /veh RASL12 (11751679_a_at) / RFU CDKN2B (11736163_a_at) / Fold change /veh CDKN2B (11736163_a_at) / RFU PRF1 (11729649_at) / Fold change /veh PRF1 (11729649_at) / RFU, ZNF638 /// ZNF638-IT1 / Fold change vs veh, ZNF638 /// ZNF638-IT1 / RFU, PANK3 / Fold change vs veh, PANK3 / RFU, SH3YL1 / Fold change vs veh, SH3YL1 / RFU, ZEB2 / Fold change vs veh, ZEB2 / RFU, NRIP1 / Fold change vs veh, NRIP1 / RFU, PTTG1IP / Fold change vs veh, PTTG1IP / RFU, CAPN2 / Fold change vs veh, CAPN2 / RFU, MED14 / Fold change vs veh, MED14 / RFU, SNORA58 / Fold change vs veh, SNORA58 / RFU, C1orf63 / Fold change vs veh, C1orf63 / RFU, LRRFIP1 / Fold change vs veh, LRRFIP1 / RFU, NDUFAF7 / Fold change vs veh, NDUFAF7 / RFU, SLC12A2 / Fold change vs veh, SLC12A2 / RFU, IBTK / Fold change vs veh, IBTK / RFU, ESF1 / Fold change vs veh, ESF1 / Fold change vs veh, TMEM50B / RFU, TAOK1 / Fold change vs veh, TAOK1 / RFU, ACBD3 / Fold change vs veh, ACBD3 / RFU, TMA16 / Fold change vs veh, TMA16 / RFU, RWDD3 / Fold change vs veh, RWDD3 / RFU, BCAT1 / Fold change vs veh, BCAT1 / RFU, EDEM3 / Fold change vs veh, EDEM3 / RFU, TMEM33 / Fold change vs veh, TMEM33 / RFU, WDR75 / Fold change vs veh, WDR75 / RFU, AHCTF1 / Fold change vs veh, AHCTF1 / RFU, TFRC / Fold change vs veh, TFRC / RFU, ZDHHC17 / Fold change vs veh, ZDHHC17 / RFU, NOM1 / Fold change vs veh, NOM1 / RFU, ARL8B / Fold change vs veh, ARL8B / RFU, ZBTB11 / Fold change vs veh, ZBTB11 / RFU, TAMM41 / Fold change vs veh, TAMM41 / RFU, KIAA1704 /// LOC100996395 / Fold change vs veh, KIAA1704 /// LOC100996395 / RFU, ING1 / Fold change vs veh, ING1 / RFU, TRMT61B / Fold change vs veh, TRMT61B / RFU, FUBP3 / Fold change vs veh, FUBP3 / RFU, TP53 / Fold change vs veh, TP53 / RFU, TNKS2 / Fold change vs veh, TNKS2 / RFU, ZFP14 / Fold change vs veh, ZFP14 / RFU, ACTR2 / Fold change vs veh, ACTR2 / RFU, PPP3R1 / Fold change vs veh, PPP3R1 / RFU, PIK3R1 / Fold change vs veh, PIK3R1 / RFU, HNRNPA1 / Fold change vs veh, HNRNPA1 / RFU, RNF170 / Fold change vs veh, RNF170 / RFU, ZNF28 / Fold change vs veh, ZNF28 / RFU, RNGTT / Fold change vs veh, RNGTT / RFU, OGT / Fold change vs veh, OGT / RFU, BRD1 / Fold change vs veh, BRD1 / RFU, MARS / Fold change vs veh, MARS / RFU, ZNF655 / Fold change vs veh, ZNF655 / RFU, FAHD1 / Fold change vs veh, FAHD1 / RFU, BDP1 / Fold change vs veh, BDP1 / RFU, LRRCC1 / Fold change vs veh, LRRCC1 / RFU, ARID1A / Fold change vs veh, ARID1A / RFU, ZNF146 / Fold change vs veh, ZNF146 / RFU, ZNF330 / Fold change vs veh, ZNF330 / RFU, GPN3 / Fold change vs veh, GPN3 / RFU, C9orf123 / Fold change vs veh, C9orf123 / RFU, N4BP2L2 / Fold change vs veh, N4BP2L2 / RFU, ARFIP1 / Fold change vs veh, ARFIP1 / RFU, FAM179B / Fold change vs veh, FAM179B / RFU, BCL10 / Fold change vs veh, BCL10 / RFU, UHRF1BP1L / Fold change vs veh, UHRF1BP1L / RFU, BET1 / Fold change vs veh, BET1 / RFU, CNOT2 / Fold change vs veh, CNOT2 / RFU, ZNF268 / Fold change vs veh, ZNF268 / Fold change vs veh, ZNF507 / RFU, DGCR2 / Fold change vs veh, DGCR2 / RFU, WDSUB1 / Fold change vs veh, WDSUB1 / Fold change vs veh, HSP90B1 /// MIR3652 / RFU, ADSS / Fold change vs veh, ADSS / RFU, GK / Fold change vs veh, GK / RFU, ZNF148 / Fold change vs veh, ZNF148 / RFU, TAF9 / Fold change vs veh, TAF9 / RFU, SLC1A5 / Fold change vs veh, SLC1A5 / RFU, SLMO2 / Fold change vs veh, SLMO2 / RFU, ABCC4 / Fold change vs veh, ABCC4 / RFU, LOC101060439 /// RAP1B / Fold change vs veh, LOC101060439 /// RAP1B / RFU, RFX7 / Fold change vs veh, RFX7 / RFU, GTPBP10 / Fold change vs veh, GTPBP10 / RFU, CNEP1R1 / Fold change vs veh, CNEP1R1 / RFU, BIVM-ERCC5 /// ERCC5 / Fold change vs veh, BIVM-ERCC5 /// ERCC5 / RFU, ILF3 / Fold change vs veh, ILF3 / RFU 11762660_at / Fold change /veh 11762660_at / RFU VCAN (11757783_s_at) / Fold change /veh VCAN (11757783_s_at) / RFU DDX43 (11728927_at) / Fold change /veh DDX43 (11728927_at) / RFU KRT8 (11758188_x_at) / Fold change /veh KRT8 (11758188_x_at) / RFU NKD1 (11759106_at) / Fold change /veh NKD1 (11759106_at) / RFU SRD5A1 (11742802_a_at) / Fold change /veh SRD5A1 (11742802_a_at) / RFU TPSAB1 /// TPSB2 (11721975_s_at) / Fold change /veh TPSAB1 /// TPSB2 (11721975_s_at) / RFU GSTM3 (11746129_a_at) / Fold change /veh GSTM3 (11746129_a_at) / RFU IL23R (11737362_x_at) / Fold change /veh IL23R (11737362_x_at) / RFU TMEM51 (11727254_a_at) / Fold change /veh TMEM51 (11727254_a_at) / RFU PIWIL2 (11732686_x_at) / Fold change /veh PIWIL2 (11732686_x_at) / RFU ORM1 (11744905_x_at) / Fold change /veh ORM1 (11744905_x_at) / RFU CCDC152 (11743942_at) / Fold change /veh CCDC152 (11743942_at) / RFU ECM1 (11717891_a_at) / Fold change /veh ECM1 (11717891_a_at) / RFU IL23R (11748794_a_at) / Fold change /veh IL23R (11748794_a_at) / RFU TNFAIP8L3 (11732012_x_at) / Fold change /veh TNFAIP8L3 (11732012_x_at) / RFU MBOAT4 (11741988_at) / Fold change /veh MBOAT4 (11741988_at) / RFU 11764193_at / Fold change /veh 11764193_at / RFU TMEM53 (11763286_at) / Fold change /veh TMEM53 (11763286_at) / RFU MAGEB2 (11727129_at) / Fold change /veh MAGEB2 (11727129_at) / RFU TMEM200A (11744735_a_at) / Fold change /veh TMEM200A (11744735_a_at) / RFU CCDC152 (11751479_a_at) / Fold change /veh CCDC152 (11751479_a_at) / RFU FAM211A (11726209_a_at) / Fold change /veh FAM211A (11726209_a_at) / RFU RGS16 (11746705_a_at) / Fold change /veh RGS16 (11746705_a_at) / RFU VCAN (11755009_s_at) / Fold change /veh VCAN (11755009_s_at) / RFU RHOB (11743442_s_at) / Fold change /veh RHOB (11743442_s_at) / RFU RGS16 (11720943_a_at) / Fold change /veh RGS16 (11720943_a_at) / RFU RGS16 (11720944_at) / Fold change /veh RGS16 (11720944_at) / RFU, VPS4B / Fold change vs veh, VPS4B / RFU, CREB1 / Fold change vs veh, CREB1 / RFU, DNAJC13 / Fold change vs veh, DNAJC13 / RFU, GNAQ / Fold change vs veh, GNAQ / RFU, CDK5R1 / Fold change vs veh, CDK5R1 / RFU, ZRANB3 / Fold change vs veh, ZRANB3 / RFU, CUL4A / Fold change vs veh, CUL4A / RFU, CCNY / Fold change vs veh, CCNY / RFU, UFL1 / Fold change vs veh, UFL1 / RFU, COG3 / Fold change vs veh, COG3 / RFU, DIAPH2 / Fold change vs veh, DIAPH2 / RFU, SKA2 / Fold change vs veh, SKA2 / RFU, AFF3 / Fold change vs veh, AFF3 / RFU, LMF1 / Fold change vs veh, LMF1 / RFU, IPO11 / Fold change vs veh, IPO11 / RFU, DFFB / Fold change vs veh, DFFB / RFU, FOXP1 / Fold change vs veh, FOXP1 / RFU, CARD8 / Fold change vs veh, CARD8 / RFU, STRN3 / Fold change vs veh, STRN3 / RFU, ADK / Fold change vs veh, ADK / RFU, RASSF2 / Fold change vs veh, RASSF2 / RFU, WIPF1 / Fold change vs veh, WIPF1 / RFU, LARP1B / Fold change vs veh, LARP1B / RFU, RASA1 / Fold change vs veh, RASA1 / RFU, RB1 / Fold change vs veh, RB1 / RFU, PPFIA1 / Fold change vs veh, PPFIA1 / RFU, MAT2A / Fold change vs veh, MAT2A / RFU, CCT5 / Fold change vs veh, CCT5 / RFU, WDR92 / Fold change vs veh, WDR92 / RFU, CUX1 / Fold change vs veh, CUX1 / RFU, TTC7A / Fold change vs veh, TTC7A / RFU, TMEM135 / Fold change vs veh, TMEM135 / RFU, DEPTOR / Fold change vs veh, DEPTOR / RFU, CPM / Fold change vs veh, CPM / RFU, DNAJB6 / Fold change vs veh, DNAJB6 / RFU, CACNA2D3 / Fold change vs veh, CACNA2D3 / RFU, DTX4 / Fold change vs veh, DTX4 / RFU, TFCP2 / Fold change vs veh, TFCP2 / RFU, GMCL1 /// GMCL1P1 / Fold change vs veh, GMCL1 /// GMCL1P1 / RFU, AEBP2 / Fold change vs veh, AEBP2 / RFU, SNHG1 /// SNORD22 /// SNORD25 /// SNORD26 /// SNORD27 /// SNORD28 /// SNORD29 /// SNORD31 / Fold change vs veh, SNHG1 /// SNORD22 /// SNORD25 /// SNORD26 /// SNORD27 /// SNORD28 /// SNORD29 /// SNORD31 / Fold change (Aza/veh), C12orf56 (ProbeSet 11735607_a_at) / Fold change (ACY-1035/veh), C12orf56 (ProbeSet 11735607_a_at) / Fold change (Aza/veh), FGFR1OP (ProbeSet 11751329_s_at) / Fold change (ACY-1035/veh), FGFR1OP (ProbeSet 11751329_s_at) / Fold change (Aza/veh), VPS36 (ProbeSet 11739960_a_at) / Fold change (ACY-1035/veh), VPS36 (ProbeSet 11739960_a_at) / RFU SYPL1 (11715823_x_at) / Fold change /veh SYPL1 (11715823_x_at) / RFU IGFBP7 (11715501_s_at) / Fold change /veh IGFBP7 (11715501_s_at) / RFU REEP3 (11722064_at) / Fold change /veh REEP3 (11722064_at) / RFU IGLL1 (11728026_x_at) / Fold change /veh IGLL1 (11728026_x_at): dose or concentration left out as unconfirmed
Settings: ProbeSet 11755425_a_at; LIST B

SMILES: Nc1ncn([C@@H]2O[C@H](CO)[C@@H](O)[C@H]2O)c(=O)n1 [azacitidine]
- Fold change vs veh, FAM179B: 0.87
